How the values were obtained:
Test in all cases: Protein kinase inhibition assay
Format in all cases: biochemical
Blk(m) = Blk(m) (Mus musculus, UniProt P16277); details: read-out: percent residual activity of Blk(m)
Protocol: (§1) Certain compounds were tested for activity in protein kinase inhibition assays. All substrates were dissolved and diluted to working stocks in de-ionized water, apart from histone H1 (10× working stock in 20 mM MOPS pH 7.0), PDKtide (10× working stock in 50 mM Tris pH 7.0) ATF2 (which is typically stored at a 20× working stock in 50 mM Tris pH 7.5, 150 mM NaCl, 0.1 mM EGTA, 0.03% Brij-35, 50% glycerol, 1 mM benzamidine, 0.2 mM PMSF and 0.1% R-mercaptoethanol), KKLNRTLSFAEPG (SEQ ID NO:203) and RRRLSFAEPG (SEQ ID NO:204) (50 mM HEPES pH 7.4) and GGEEEEYFELVKKKK (SEQ ID NO:205) (20 mM MOPS pH 7.0). All kinases were pre-diluted to a 10× working concentration prior to addition into the assay. The composition of the dilution buffer for each kinase is detailed below.
In a final reaction volume of 25 μl, Blk (m) (5-10 mU) is incubated with 50 mM Tris pH 7.5, 0.1 mM EGTA, 0.1 mM Na3VO4, 0.1% R-mercaptoethanol, 0.1 mg/ml poly(Glu, Tyr) 4:1, 10 mM MgAcetate and [gamma-33P-ATP] (specific activity approx. 500 cpm/pmol, concentration as required). The reaction is initiated by the addition of the MgATP mix. After incubation for 40 minutes at room temperature, the reaction is stopped by the addition of 5 μl of a 3% phosphoric acid solution. […]

EphA5(h) = EphA5(h) (Homo sapiens, UniProt P54756); details: read-out: percent residual activity of EphA5(h)
Protocol: as §1
(§2) In a final reaction volume of 25 μl, EphA5 (h) (5-10 mU) is incubated with 8 mM MOPS pH 7.0, 0.2 mM EDTA, 2.5 mM MnCl2, 0.1 mg/ml poly (Glu, Tyr) 4:1, 10 mM MgAcetate and [gamma-33P-ATP] (specific activity approx. 500 cpm/pmol, concentration as required). The reaction is initiated by the addition of the MgATP mix. After incubation for 40 minutes at room temperature, the reaction is stopped by the addition of 5 μl of a 3% phosphoric acid solution. 10 μl of the reaction is then spotted onto a Filtermat A and washed three times for 5 minutes in 75 mM phosphoric acid and once in methanol prior to drying and scintillation counting.

IRR(h) = IRR(h) (Homo sapiens, UniProt P14616); details: read-out: percent residual activity of IRR(h)
Protocol: as §1
as §2, with “IRR” for “EphA5”, “0.33” for “2.5 mM MnCl2, 0.1”, “myelin basic protein,” for “poly (Glu, Tyr) 4:1,”, “P30 filtermat” for “Filtermat A”

MAPK2(h) = MAPK2(h) (Homo sapiens, UniProt P28482); details: read-out: percent residual activity of MAPK2(h)
Protocol: as §1
In a final reaction volume of 25 μl, MAPK2 (h) (5-10 mU) is incubated with 25 mM Tris pH 7.5, 0.02 mM EGTA, 0.33 mg/ml myelin basic protein, 10 mM MgAcetate and [gamma-33P-ATP] (specific activity approx. 500 cpm/pmol, concentration as required). The reaction is initiated by the addition of the MgATP mix. After incubation for 40 minutes at room temperature, the reaction is stopped by the addition of […] of a 3% phosphoric acid solution. 10 μl of the reaction is then spotted onto a P30 filtermat and washed three times for 5 minutes in 75 mM phosphoric acid and once in methanol prior to drying and scintillation counting.

Rsk1(h) = Rsk1(h) (Homo sapiens, UniProt Q15418); details: read-out: percent residual activity of Rsk1(h)
Protocol: as §1
as §2, with “Rsk1” for “EphA5”, “30 μM KKKNRTLSVA (SEQ ID NO:212),” for “2.5 mM MnCl2, 0.1 mg/ml poly (Glu, Tyr) 4:1,”, “P30 filtermat” for “Filtermat A”

cSRC(h) = cSRC(h) (Homo sapiens, UniProt P12931); details: read-out: percent residual activity of cSRC(h)
Protocol: as §1
In a final reaction volume of 25 μl, cSRC (h) (5-10 mU) is incubated with 8 mM MOPS pH 7.0, 0.2 mM EDTA, 250 μM KVEKIGEGTYGVVYK (SEQ ID NO:211) (Cdc2 peptide), 10 mM MgAcetate and [y-33P-ATP] (specific activity approx. 500 cpm/pmol, concentration as required). The reaction is initiated by the addition of the MgATP mix. After incubation for 40 minutes at room temperature, the reaction is stopped by the addition of 5 μl of a 3% phosphoric acid solution. […]

Sequence of EphA5(h) (P54756 25-1037): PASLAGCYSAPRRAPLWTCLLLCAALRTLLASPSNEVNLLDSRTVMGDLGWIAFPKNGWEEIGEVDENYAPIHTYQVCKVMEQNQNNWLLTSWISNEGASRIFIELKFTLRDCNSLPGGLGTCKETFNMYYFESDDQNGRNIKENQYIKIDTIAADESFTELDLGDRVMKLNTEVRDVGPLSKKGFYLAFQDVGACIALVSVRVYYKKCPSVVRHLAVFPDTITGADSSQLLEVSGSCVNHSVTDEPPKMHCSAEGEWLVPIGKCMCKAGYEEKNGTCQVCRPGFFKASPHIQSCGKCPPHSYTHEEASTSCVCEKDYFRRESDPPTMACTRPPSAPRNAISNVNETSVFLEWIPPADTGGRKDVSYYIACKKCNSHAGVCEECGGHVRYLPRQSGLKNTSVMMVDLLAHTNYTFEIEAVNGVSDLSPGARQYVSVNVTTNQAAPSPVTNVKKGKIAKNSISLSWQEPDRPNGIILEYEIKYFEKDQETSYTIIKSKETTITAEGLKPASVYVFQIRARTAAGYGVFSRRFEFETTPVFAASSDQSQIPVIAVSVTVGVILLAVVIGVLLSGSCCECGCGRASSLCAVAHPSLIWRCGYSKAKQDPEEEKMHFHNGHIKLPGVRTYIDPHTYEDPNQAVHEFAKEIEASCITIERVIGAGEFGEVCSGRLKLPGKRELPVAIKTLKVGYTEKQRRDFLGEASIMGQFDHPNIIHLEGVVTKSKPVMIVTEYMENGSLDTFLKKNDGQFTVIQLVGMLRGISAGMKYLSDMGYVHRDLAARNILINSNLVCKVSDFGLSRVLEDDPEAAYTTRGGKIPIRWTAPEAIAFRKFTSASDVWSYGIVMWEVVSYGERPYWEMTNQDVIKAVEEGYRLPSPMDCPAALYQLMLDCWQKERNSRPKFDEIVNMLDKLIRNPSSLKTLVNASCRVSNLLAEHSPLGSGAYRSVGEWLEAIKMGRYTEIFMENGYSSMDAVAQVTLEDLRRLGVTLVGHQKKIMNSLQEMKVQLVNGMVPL
Sequence of IRR(h) (P14616 27-1297): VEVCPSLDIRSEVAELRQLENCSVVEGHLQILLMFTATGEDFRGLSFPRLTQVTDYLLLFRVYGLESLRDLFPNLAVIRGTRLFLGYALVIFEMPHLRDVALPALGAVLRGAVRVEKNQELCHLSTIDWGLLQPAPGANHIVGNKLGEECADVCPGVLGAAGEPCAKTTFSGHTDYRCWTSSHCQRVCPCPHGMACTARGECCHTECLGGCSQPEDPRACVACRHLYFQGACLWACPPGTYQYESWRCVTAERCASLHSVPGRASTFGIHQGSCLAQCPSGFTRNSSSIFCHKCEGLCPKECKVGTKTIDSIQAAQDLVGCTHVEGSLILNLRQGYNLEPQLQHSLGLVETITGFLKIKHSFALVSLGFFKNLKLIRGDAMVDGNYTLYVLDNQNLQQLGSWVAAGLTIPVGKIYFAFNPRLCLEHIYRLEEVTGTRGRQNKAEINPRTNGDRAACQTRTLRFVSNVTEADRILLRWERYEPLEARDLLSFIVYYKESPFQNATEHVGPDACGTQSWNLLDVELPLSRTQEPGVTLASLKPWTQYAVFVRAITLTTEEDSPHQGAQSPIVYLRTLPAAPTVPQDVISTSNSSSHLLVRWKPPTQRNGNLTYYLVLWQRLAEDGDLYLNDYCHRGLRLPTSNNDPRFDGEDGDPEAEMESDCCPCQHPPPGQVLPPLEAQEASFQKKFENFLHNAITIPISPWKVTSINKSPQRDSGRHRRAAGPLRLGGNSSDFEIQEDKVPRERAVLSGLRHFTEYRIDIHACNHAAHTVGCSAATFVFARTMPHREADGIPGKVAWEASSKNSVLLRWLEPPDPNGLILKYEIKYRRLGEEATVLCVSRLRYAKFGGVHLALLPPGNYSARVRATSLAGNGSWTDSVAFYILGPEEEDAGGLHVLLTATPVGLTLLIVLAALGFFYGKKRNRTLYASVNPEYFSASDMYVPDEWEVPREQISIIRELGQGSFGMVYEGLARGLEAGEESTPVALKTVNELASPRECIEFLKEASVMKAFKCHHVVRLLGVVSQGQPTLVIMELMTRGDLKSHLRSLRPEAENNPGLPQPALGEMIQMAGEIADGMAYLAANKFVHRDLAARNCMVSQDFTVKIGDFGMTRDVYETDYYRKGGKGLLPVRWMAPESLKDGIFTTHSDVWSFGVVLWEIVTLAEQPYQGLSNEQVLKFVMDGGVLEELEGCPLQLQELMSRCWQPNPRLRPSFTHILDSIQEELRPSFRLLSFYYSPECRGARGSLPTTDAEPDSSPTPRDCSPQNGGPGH
Sequence of cSRC(h) (P12931 whole entry): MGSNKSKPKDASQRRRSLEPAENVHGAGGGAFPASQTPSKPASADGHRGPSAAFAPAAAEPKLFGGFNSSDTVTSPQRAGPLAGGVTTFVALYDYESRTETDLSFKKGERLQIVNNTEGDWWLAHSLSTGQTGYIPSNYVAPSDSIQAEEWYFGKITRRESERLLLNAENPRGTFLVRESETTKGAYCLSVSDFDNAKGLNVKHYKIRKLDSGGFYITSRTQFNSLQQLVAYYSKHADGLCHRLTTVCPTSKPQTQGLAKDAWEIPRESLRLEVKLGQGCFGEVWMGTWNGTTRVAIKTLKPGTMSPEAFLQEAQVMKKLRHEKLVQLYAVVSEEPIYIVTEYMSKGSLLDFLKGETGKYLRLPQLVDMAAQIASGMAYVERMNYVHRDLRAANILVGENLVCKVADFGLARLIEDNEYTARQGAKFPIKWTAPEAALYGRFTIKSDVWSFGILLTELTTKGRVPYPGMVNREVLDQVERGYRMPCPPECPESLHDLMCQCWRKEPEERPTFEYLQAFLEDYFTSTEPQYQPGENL
Sequence of Rsk1(h) (Q15418 whole entry): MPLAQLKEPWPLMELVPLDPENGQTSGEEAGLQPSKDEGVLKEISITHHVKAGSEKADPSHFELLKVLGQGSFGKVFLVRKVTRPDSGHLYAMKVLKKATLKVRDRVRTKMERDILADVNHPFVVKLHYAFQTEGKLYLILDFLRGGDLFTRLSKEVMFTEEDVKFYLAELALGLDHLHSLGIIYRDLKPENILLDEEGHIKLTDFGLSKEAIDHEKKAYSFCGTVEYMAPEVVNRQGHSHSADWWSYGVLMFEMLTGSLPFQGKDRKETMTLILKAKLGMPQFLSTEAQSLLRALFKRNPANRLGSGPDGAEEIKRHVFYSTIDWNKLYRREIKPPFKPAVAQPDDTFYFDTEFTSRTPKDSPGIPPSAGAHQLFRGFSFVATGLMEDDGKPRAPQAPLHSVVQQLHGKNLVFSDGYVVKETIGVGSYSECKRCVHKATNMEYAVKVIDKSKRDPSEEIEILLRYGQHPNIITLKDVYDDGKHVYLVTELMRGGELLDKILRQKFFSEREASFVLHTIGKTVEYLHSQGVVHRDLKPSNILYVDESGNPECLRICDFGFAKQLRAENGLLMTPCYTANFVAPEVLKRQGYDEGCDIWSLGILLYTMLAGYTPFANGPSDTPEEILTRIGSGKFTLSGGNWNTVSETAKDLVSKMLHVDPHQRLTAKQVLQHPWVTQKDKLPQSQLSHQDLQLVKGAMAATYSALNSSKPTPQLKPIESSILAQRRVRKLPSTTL
Sequence of Blk(m) (P16277 whole entry): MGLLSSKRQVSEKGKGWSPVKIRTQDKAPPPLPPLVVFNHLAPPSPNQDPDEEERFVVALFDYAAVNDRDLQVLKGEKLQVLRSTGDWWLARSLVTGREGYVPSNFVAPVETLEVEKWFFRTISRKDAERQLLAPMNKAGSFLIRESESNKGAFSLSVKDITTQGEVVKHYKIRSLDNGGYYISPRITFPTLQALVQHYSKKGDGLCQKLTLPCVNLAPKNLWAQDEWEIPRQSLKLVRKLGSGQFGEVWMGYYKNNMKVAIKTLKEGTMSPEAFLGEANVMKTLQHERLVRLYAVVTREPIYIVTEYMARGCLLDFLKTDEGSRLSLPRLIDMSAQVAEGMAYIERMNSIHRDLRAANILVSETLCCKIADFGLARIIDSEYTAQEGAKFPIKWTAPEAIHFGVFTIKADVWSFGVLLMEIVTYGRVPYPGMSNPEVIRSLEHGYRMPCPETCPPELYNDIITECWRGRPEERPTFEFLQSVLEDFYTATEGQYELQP
Sequence of MAPK2(h) (P28482 whole entry): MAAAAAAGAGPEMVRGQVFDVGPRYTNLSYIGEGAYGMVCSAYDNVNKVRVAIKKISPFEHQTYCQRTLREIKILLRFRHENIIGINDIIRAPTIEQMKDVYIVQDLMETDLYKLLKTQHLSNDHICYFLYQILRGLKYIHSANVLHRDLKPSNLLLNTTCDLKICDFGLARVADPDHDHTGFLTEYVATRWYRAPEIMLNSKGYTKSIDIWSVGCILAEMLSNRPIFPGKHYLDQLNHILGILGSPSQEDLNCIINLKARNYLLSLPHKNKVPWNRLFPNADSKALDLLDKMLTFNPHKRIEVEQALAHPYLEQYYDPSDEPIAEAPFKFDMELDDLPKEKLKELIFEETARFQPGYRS

| remaining activity at 2.5 µM (Blk(m)) | remaining activity at 2.5 µM (EphA5(h)) | remaining activity at 2.5 µM (IRR(h)) | remaining activity at 2.5 µM (MAPK2(h)) | remaining activity at 2.5 µM (Rsk1(h)) | remaining activity at 2.5 µM (cSRC(h)) | SMILES |
| --- | --- | --- | --- | --- | --- | --- |
| 117% | 111% | 97% | 101% | 85% | 33% | CN1CCCC1CCNC(=O)c1cn2c3c(c(N4CCC(c5cnccn5)C4)c(F)cc3c1=O)Oc1cc3ccccc3cc1-2 (stereo not drawn) [Compound A-1] |
| 106% | 101% | 103% | 108% | 103% | 137% | CC(=O)N1CCN(c2ccc3c(=O)c(C(=O)NCCN4CCCC4)c4n(C)c5ccccc5n4c3n2)CC1 [Compound B-1] |

Reference: patent US20070117770A1, “Human ribosomal DNA (rDNA) and ribosomal RNA (rRNA) nucleic acids and uses thereof” (Cylene Pharmaceuticals, Inc., priority 2005, published 2007)
